{"source": "paper PMC5469522", "assay": "Non-covalent ring closure: intramolecular phenol OH...acceptor H-bond (folding of AD 2-mers; acceptor is phosphine oxide, pyridine or pyridine N-oxide). EMf = Kfold/K(A.D); Kfold inferred from NMR dilution Kobs(AD.AD) versus Kobs(AA.DD)", "conditions": "the molecule shown is the open-chain precursor, toluene-d8 (C7-PO in CDCl3), 25.0 °C", "data": [{"compound": "CCCCC(CC)COc1cc(CN(Cc2ccccc2OC)c2ccc(OCP(=O)(C(C)(C)C)C(C)(C)C)cc2)c(OCC(CC)CCCC)cc1CN(Cc1ccccc1OC)c1ccc(O)cc1", "note": "(stereo not shown) [N8-PO (26)]", "values": [{"measurement": "ring closure, effective molarity", "setting": "22-membered ring", "result": 3, "unit": "mM"}]}, {"compound": "CCCCP(=O)(CCCC)c1ccc(C[C@@H](CCSCC[C@H](CCSC(C)=O)Cc2ccc(O)cc2)CCSC(C)(C)C)cc1", "note": "[C9-PO (33)]", "values": [{"measurement": "ring closure, effective molarity", "setting": "21-membered ring", "result": 7, "unit": "mM"}]}, {"compound": "CCCCC(CC)COc1cc(CN(Cc2ccccc2OC)c2ccc(O)cc2)cc(CN(Cc2ccccc2OC)c2ccc(OCP(=O)(C(C)(C)C)C(C)(C)C)cc2)c1", "note": "(stereo not shown) [N7-PO (29)]", "values": [{"measurement": "ring closure, effective molarity", "setting": "21-membered ring", "result": 15, "unit": "mM"}]}, {"compound": "CCCCC(CC)COc1ccc(N(Cc2ccc(O)cc2)Cc2cc([N+](=O)[O-])ccc2OCC(CC)CCCC)cc1CN(Cc1ccc(OCP(=O)(C(C)(C)C)C(C)(C)C)cc1)c1ccc(OCC(CC)CCCC)c(C2OCCO2)c1", "note": "(stereo not shown) [C8-PO (16)]", "values": [{"measurement": "ring closure, effective molarity", "setting": "22-membered ring", "result": 7, "unit": "mM"}]}, {"compound": "CCCCC(CC)COc1ccc(N(Cc2ccc(O)cc2)Cc2cc([N+](=O)[O-])ccc2OCC(CC)CCCC)cc1CN(Cc1cc[n+]([O-])cc1)c1ccc(OCC(CC)CCCC)c(C2OCCO2)c1", "note": "(stereo not shown) [C8-NO (13)]", "values": [{"measurement": "ring closure, effective molarity", "setting": "19-membered ring", "result": 0, "unit": "mM"}]}, {"compound": "CCCCC(CC)COc1ccc(N(Cc2ccc(O)cc2)Cc2cc([N+](=O)[O-])ccc2OCC(CC)CCCC)cc1CN(Cc1ccncc1)c1ccc(OCC(CC)CCCC)c(C2OCCO2)c1", "note": "(stereo not shown) [C8-N (21)]", "values": [{"measurement": "ring closure, effective molarity", "setting": "18-membered ring", "result": 0, "unit": "mM"}]}, {"compound": "CCCCP(=O)(CCCC)c1cccc(C#Cc2cc(C#Cc3cccc(O)c3)cc(OCC[C@@H](C)CCC=C(C)C)c2)c1", "note": "[C7-PO (44), CDCl3]", "values": [{"measurement": "ring closure, effective molarity", "setting": "17-membered ring", "result": 0, "unit": "mM"}]}]}
